Where a name gives a salt, the structure may show the parent alone.
Key:
[1] = system: Vasopressin V2; assay: Vasopressin V2 agonist effects of test compounds in normal conscious water-loaded rats; format: in vivo; conditions: oral dose of 10 mg/kg, urine collected for four hours, Sprague-Dawley (CD) rats; for Changes in Urinary Osmolality: osmolality changes expressed as percent of control; for Urine Volume (% decrease): percent decrease in urine volume vs. control, vehicle 20% DMSO in 2.5% preboiled corn starch
From the text: Vasopressin V2 Agonist Effects of Test Compounds in Normal Conscious Water-Loaded Rats:
Male or female normotensive Sprague-Dawley rats (Charles River Laboratories, Inc., Kingston, NY) of 350-500 g body weight were supplied with standard rodent diet (Purina Rodent Lab. Chow 5001) and water ad libitum. On the day of test, rats were placed individually into metabolic cages equipped with devices to separate the feces from the urine and containers for collection of urine. A test compound or a reference agent was given at an oral dose of 10 mg/kg in a volume of 10 ml/kg. The vehicle used was 20% dimethylsulfoxide (DMSO) in 2.5% preboiled corn starch. Thirty minutes after dosing the test compound, rats were gavaged with water at 30 ml/kg into the stomach using a feeding needle. During the test, rats were not provided with water or food. Urine was collected for four hours after dosing of the test compound. At the end of four hours, urine volume was measured. Urinary osmolality was determined using a Fiske One-Ten Osmometer (Fiske Associates, Norwood, MA, 02062) or an Advanced CRYOMATIC Osmometer, Model 3C2 (Advanced Instruments, Norwood, MA). Determinations of Na^+, K^+ and Cl^- ion were carried out using ion specific electrodes in a Beckman SYNCHRON EL-ISE Electrolyte System analyzer. The urinary osmolality should increase proportionally. In the screening test, two rats were used for each compound. If the difference in the urine volume of the two rats was greater than 50%, a third rat was used.

[2] = system: Vasopressin V2; assay: as above; format: in vivo; conditions: Sprague-Dawley (CD) rats; for Urine Volume (% decrease): percent decrease in urine volume vs. control, dose 1 mg/kg; for Changes in Urinary Osmolality: percent of control

Structure (SMILES)	Changes in Urinary Osmolality [1]	Urine Volume (% decrease) [1] [% decrease]	also measured
Cc1nc(-c2ccc(C(=O)N3Cc4cccnc4Nc4ccccc43)c(Cl)c2)n[nH]1 [Example 24, [2-Chloro-4-(5-methyl-1H-[1,2,4]triazol-3-yl)-phenyl]-(5,11-dihydro-pyrido[2,3-b][1,5]benzodiazepin-6-yl)-methanone]	615% of control	86	
Cc1ccn(-c2ccc(C(=O)N3Cc4cccnc4Nc4ccccc43)c(Br)c2)n1 [Example 3, [2-Bromo-4-(3-methyl-pyrazol-1-yl)-phenyl]-(5,11-dihydro-pyrido[2,3-b] [1,5]benzodiazepin-6-yl)-methanone]	346% of control	85	
Cc1ccn(-c2ccc(C(=O)N3Cc4cccnc4N(C)c4ccccc43)c(C(F)(F)F)c2)n1 [Example 8, (5-Methyl-5,11-dihydro-pyrido[2,3-b][1,5]benzodiazepin-10-yl)-[4-(3-methyl-pyrazol-1-yl)-2-trifluoromethyl-phenyl]methanone]	298% of control	72	
Cc1ccn(-c2ccc(C(=O)N3Cc4cccnc4Nc4ccccc43)c(C(F)(F)F)c2)n1 [Example 14, (5,11-Dihydro-pyrido[2,3-b][1,5]benzodiazepin-6-yl)-[4-(3-methyl-pyrazol-1-yl)-2-trifluoromethyl-phenyl]-methanone 1:1 salt with methanesulfonic acid solvate with 0.15 hexane]			Urine Volume (% decrease) [2]: 83 (1 mg/kg) % decrease; Changes in Urinary Osmolality ([2]; same row's urine volume cell prints 1 mg/kg (footnote says 10 mg/kg)): 321% of control
Cc1ccnn1-c1ccc(C(=O)N2Cc3cccnc3Nc3ccccc32)c(C(F)(F)F)c1 [Example 6, (5,11-Dihydro-pyrido[2,3-b][1,5]benzodiazepin-10-yl)-[4-(5-methyl-pyrazol-1-yl)-2-trifluoromethyl-phenyl]-methanone solvate with 0.09 dichloromethane and 0.13 ethyl acetate]	103% of control	25	
Cc1ccn(-c2ccc(C(=O)N3Cc4cccnc4Oc4ccccc43)c(Cl)c2)n1 [Example 16, [2-Chloro-4-(3-methyl-pyrazol-1-yl)-phenyl]-(11H-5-oxa-4,10-diazadibenzo[a,d]cyclohepten-10-yl)-methanone]	142% of control	41	
O=C(c1ccc(-n2ccc(C(F)(F)F)n2)cc1C(F)(F)F)N1Cc2cccnc2Nc2ccccc21 [Example 7, (5,11-Dihydro-pyrido[2,3-b][1,5]benzodiazepin-6-yl)-[2-trifluoromethyl-4-(3-trifluoromethyl-pyrazol-1-yl)-phenyl]-methanone]	283% of control	69	
Cn1ccc(-c2ccc(C(=O)N3Cc4cccnc4Nc4ccccc43)c(Cl)c2)n1 [Example 18, [2-Chloro-4-(1-methyl-1-H-pyrazol-3-yl)-phenyl]-(5,11-dihydro-pyrido[2,3-b][1,5]benzodiazepin-10-yl)-methanone]	234% of control	76	
Cc1ccn(-c2ccc(C(=O)N3Cc4cccnc4Nc4ccccc43)c(C(F)(F)F)c2)n1 [Example 4, (5,11-Dihydro-pyrido[2,3-b][1,5]benzodiazepin-6-yl)-[4-(3-methyl-pyrazol-1-yl)-2-trifluoromethyl-phenyl]-methanone]	339% of control	87	
Cc1ccn(-c2ccc(C)c(C(=O)N3Cc4cccnc4Nc4ccccc43)c2)n1 [Example 12, (5,11-Dihydro-pyrido[2,3-b][1,5]benzodiazepin-10-yl)-[2-methyl-5-(3-methyl-pyrazol-1-yl)-phenyl]-methanone]	101% of control	-2	
O=C(c1ccc(-n2ccc(C(F)(F)F)n2)cc1Cl)N1Cc2cccnc2Nc2ccccc21 [Example 17, [2-Chloro-4-(3-trifluoromethyl-pyrazol-1-yl)-phenyl]-(5,11-dihydro-pyrido[2,3-b][1,5]benzodiazepin-6-yl)-methanone]	262% of control	72	
Cc1ccn(-c2ccc(C(=O)N3Cc4cccnc4Nc4ccccc43)c(F)c2)n1 [Example 9, (5,11-Dihydro-pyrido[2,3-b][1,5]benzodiazepin-10-yl)-[2-fluoro-4-(3-methyl-pyrazol-1-yl)-phenyl]-methanone 0.19 hydrate]	372% of control	59	
Cc1ccn(-c2ccc(C(=O)N3Cc4cccnc4Nc4ccccc43)c(Cl)c2)n1 [Example 1, [2-Chloro-4-(3-methyl-pyrazol-1-yl)-phenyl]-(5,11-dihydro-pyrido [2,3-b] [1,5]benzodiazepin-6-yl)-methanone]	272% of control	80	
Cc1ccnn1-c1ccc(C(=O)N2Cc3cccnc3Nc3ccccc32)c(Cl)c1 [Example 2, [2-Chloro-4-(5-methyl-pyrazol-1-yl)-phenyl] (5,11-dihydro-pyrido[2,3-b] [1,5]benzodiazepin-6-yl)-methanone]	288% of control	61	
Cc1ccn(-c2ccc(C(=O)N3Cc4cccnc4Nc4ccccc43)c(C(F)(F)F)c2)n1 [Example 15, (5,11-Dihydro-pyrido[2,3-b][1,5]benzodiazepin-6-yl)-[4-(3-methyl-pyrazol-1-yl)-2-trifluoromethyl-phenyl]-methanone 1:1 salt with hydrochloric acid 0.10 dichloromethane solvate]			Urine Volume (% decrease) ([2]; starch only): 98 (1 mg/kg) starch only % decrease; Changes in Urinary Osmolality [2]: 1363% of control
CN1c2ccccc2N(C(=O)c2ccc(-c3ccn(C)n3)cc2Cl)Cc2cccnc21 [Example 20, [2-Chloro-4-(1-methyl-1H-pyrazol-3-yl)-phenyl]-(5-methyl-5,11-dihydro-pyrido[2,3-b][1,5]benzodiazepin-10-yl)-methanone]	89% of control	10	
Cc1ccn(-c2cc(F)ccc2C(=O)N2Cc3cccnc3Nc3ccccc32)n1 [Example 10, (5,11-Dihydro-pyrido[2,3-b][1,5]benzodiazepin-10-yl)-[4-fluoro-2-(3-methyl-pyrazol-1-yl)-phenyl]-methanone solvate with 0.20 ethanol]	276% of control	63	
Cc1ccn(-c2ccc(C(=O)N3Cc4cccnc4N(C)c4ccccc43)c(Cl)c2)n1 [Example 11, [2-Chloro-4-(3-methyl-pyrazol-1-yl)-phenyl]-(5-methyl-5,11-dihydro-pyrido[2,3-b][1,5]benzodiazepin-10-yl)-methanone]	375% of control	71	
CC(C)(C)c1ccn(-c2ccc(C(=O)N3Cc4cccnc4Nc4ccccc43)c(C(F)(F)F)c2)n1 [Example 13, [4-(3-tert-Butyl-pyrazol-1-yl)-2-trifluoromethyl-phenyl]-(5,11-dihydro-pyrido[2,3-b][1,5]benzodiazepin-10-yl)-methanone]	106% of control	6	

— patent publication EP1000059B1, “TRICYCLIC VASOPRESSIN AGONISTS” (Wyeth, priority 1997, dated 1999)
